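Following 48 hours of exposure in 96-well plates, responses at five concentrations were used to interpolate endpoints linearly. At the GI50, growth is halved. TGI: total growth inhibition.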
Tests used:
Experiment in all cases: NCI anticancer screen, dose series, 48 h
NCI-H460 lung = system: NCI-H460 lung
OVCAR-3 ovarian = system: OVCAR-3 ovarian
A549 NSCLC = system: A549 NSCLC
HL-60(TB) leukemia = system: HL-60(TB) leukemia
SF-295 CNS = system: SF-295 CNS
SN12C renal = system: SN12C renal
NCI-H522 lung = system: NCI-H522 lung
OVCAR-8 ovarian = system: OVCAR-8 ovarian
HCT-15 colon = system: HCT-15 colon
M14 melanoma = system: M14 melanoma
OVCAR-4 ovarian = system: OVCAR-4 ovarian
NCI-H226 lung = system: NCI-H226 lung
OVCAR-5 ovarian = system: OVCAR-5 ovarian
SF-539 CNS = system: SF-539 CNS
HS 578T breast = system: HS 578T breast
HOP-92 NSCLC = system: HOP-92 NSCLC
NCI/ADR-RES ovarian = system: NCI/ADR-RES ovarian
SF-268 CNS = system: SF-268 CNS
LOX IMVI melanoma = system: LOX IMVI melanoma
UO-31 renal = system: UO-31 renal
A498 renal = system: A498 renal
HOP-62 NSCLC = system: HOP-62 NSCLC
MDA-MB-435 = system: MDA-MB-435
K-562 leukemia = system: K-562 leukemia
DU-145 prostate = system: DU-145 prostate
MOLT-4 leukemia = system: MOLT-4 leukemia
PC-3 prostate = system: PC-3 prostate
MDA-MB-231 breast = system: MDA-MB-231 breast
UACC-62 melanoma = system: UACC-62 melanoma
SNB-75 CNS = system: SNB-75 CNS
SR leukemia = system: SR leukemia
KM12 colon = system: KM12 colon
SK-MEL-28 melanoma = system: SK-MEL-28 melanoma
UACC-257 melanoma = system: UACC-257 melanoma
U251 CNS = system: U251 CNS
T-47D breast = system: T-47D breast
IGROV1 ovarian = system: IGROV1 ovarian
HT29 colon = system: HT29 colon
TK-10 renal = system: TK-10 renal
RPMI-8226 leukemia = system: RPMI-8226 leukemia
786-0 renal = system: 786-0 renal
SK-OV-3 ovarian = system: SK-OV-3 ovarian
HCT-116 colon = system: HCT-116 colon
COLO 205 colon = system: COLO 205 colon
NCI-H23 lung = system: NCI-H23 lung
SNB-19 CNS = system: SNB-19 CNS
MCF7 breast = system: MCF7 breast
RXF 393 renal = system: RXF 393 renal
BT-549 breast = system: BT-549 breast
CAKI-1 renal = system: CAKI-1 renal
MALME-3M melanoma = system: MALME-3M melanoma
CCRF-CEM leukemia = system: CCRF-CEM leukemia
SK-MEL-5 melanoma = system: SK-MEL-5 melanoma
HCC-2998 colon = system: HCC-2998 colon
ACHN renal = system: ACHN renal
SW-620 colon = system: SW-620 colon
SK-MEL-2 melanoma = system: SK-MEL-2 melanoma

Compound `O=C(Nc1ccc(F)cc1)c1c(NC(=O)C(F)(F)F)sc2c1CCCCC2` has a GI50 (NCI-H460 lung) of 2.13 µM, a TGI (NCI-H460 lung) of 10 µM and a GI50 (OVCAR-3 ovarian) of 2.04 µM. The TGI (OVCAR-3 ovarian) was 16.3 µM, the GI50 (A549 NSCLC) was 2.64 µM and the TGI (A549 NSCLC) was 12 µM. The GI50 (HL-60(TB) leukemia) was 2.68 µM, the TGI (HL-60(TB) leukemia) was 8.32 µM and the GI50 (SF-295 CNS) was 1.01 µM. The TGI (SF-295 CNS) was 3.26 µM, the GI50 (SN12C renal) was 1.94 µM and the TGI (SN12C renal) was 8.67 µM. For the same compound, the GI50 (NCI-H522 lung) was 1.33 µM, the TGI (NCI-H522 lung) was 7.41 µM and the GI50 (OVCAR-8 ovarian) was 2.8 µM. For the same compound, the TGI (OVCAR-8 ovarian) was greater than 100 µM, the GI50 (HCT-15 colon) was 2.59 µM and the TGI (HCT-15 colon) was 10.8 µM. The GI50 (M14 melanoma) was 2.91 µM, the TGI (M14 melanoma) was 13.4 µM and the GI50 (OVCAR-4 ovarian) was 1.65 µM. The TGI (OVCAR-4 ovarian) was 8.34 µM, the GI50 (NCI-H226 lung) was 1.76 µM and the TGI (NCI-H226 lung) was 5.46 µM. It also gave a GI50 (OVCAR-5 ovarian) of 2.89 µM, a TGI (OVCAR-5 ovarian) of 13.1 µM and a GI50 (SF-539 CNS) of 2.04 µM. It also gave a TGI (SF-539 CNS) of 11.8 µM, a GI50 (HS 578T breast) of 0.633 µM and a TGI (HS 578T breast) of 4.57 µM. The GI50 (HOP-92 NSCLC) was 0.269 µM, the TGI (HOP-92 NSCLC) was 1.38 µM and the GI50 (NCI/ADR-RES ovarian) was 2.01 µM. It also gave a TGI (NCI/ADR-RES ovarian) of 7.82 µM, a GI50 (SF-268 CNS) of 2.28 µM and a TGI (SF-268 CNS) of 88 µM. For the same compound, the GI50 (LOX IMVI melanoma) was 2.43 µM, the TGI (LOX IMVI melanoma) was 13.2 µM and the GI50 (UO-31 renal) was 1.87 µM. It also gave a TGI (UO-31 renal) of 6.9 µM, a GI50 (A498 renal) of 0.0527 µM and a TGI (A498 renal) of 0.752 µM. The GI50 (HOP-62 NSCLC) was 2.26 µM, the TGI (HOP-62 NSCLC) was 6.48 µM and the GI50 (MDA-MB-435) was 2.69 µM. For the same compound, the TGI (MDA-MB-435) was 17 µM, the GI50 (K-562 leukemia) was 1.97 µM and the TGI (K-562 leukemia) was greater than 100 µM. The GI50 (DU-145 prostate) was 3.43 µM, the TGI (DU-145 prostate) was 87.1 µM and the GI50 (MOLT-4 leukemia) was 2.65 µM. It also gave a TGI (MOLT-4 leukemia) of 15.2 µM, a GI50 (PC-3 prostate) of 1.59 µM and a TGI (PC-3 prostate) of 7.87 µM. For the same compound, the GI50 (MDA-MB-231 breast) was 1.75 µM, the TGI (MDA-MB-231 breast) was 7.3 µM and the GI50 (UACC-62 melanoma) was 0.585 µM. It also gave a TGI (UACC-62 melanoma) of 5.19 µM, a GI50 (SNB-75 CNS) of 1.34 µM and a TGI (SNB-75 CNS) of 5.57 µM. The GI50 (SR leukemia) was 1.29 µM, the TGI (SR leukemia) was greater than 100 µM and the GI50 (KM12 colon) was 1.96 µM. The TGI (KM12 colon) was 9.23 µM, the GI50 (SK-MEL-28 melanoma) was 2.11 µM and the TGI (SK-MEL-28 melanoma) was 13.9 µM. It also gave a GI50 (UACC-257 melanoma) of 2.21 µM, a TGI (UACC-257 melanoma) of 7.17 µM and a GI50 (U251 CNS) of 1.73 µM. The TGI (U251 CNS) was greater than 100 µM, the GI50 (T-47D breast) was 1.62 µM and the TGI (T-47D breast) was 5.61 µM. For the same compound, the GI50 (IGROV1 ovarian) was 2.99 µM, the TGI (IGROV1 ovarian) was 15.5 µM and the GI50 (HT29 colon) was 2.48 µM. For the same compound, the TGI (HT29 colon) was 13.5 µM, the GI50 (TK-10 renal) was 3.96 µM and the TGI (TK-10 renal) was 12.5 µM. The GI50 (RPMI-8226 leukemia) was 0.917 µM, the TGI (RPMI-8226 leukemia) was 4.14 µM and the GI50 (786-0 renal) was 2.43 µM. The TGI (786-0 renal) was 10.5 µM, the GI50 (SK-OV-3 ovarian) was 2.05 µM and the TGI (SK-OV-3 ovarian) was 6.37 µM. For the same compound, the GI50 (HCT-116 colon) was 2.05 µM, the TGI (HCT-116 colon) was 10.3 µM and the GI50 (COLO 205 colon) was 1.55 µM. The TGI (COLO 205 colon) was 3.59 µM, the GI50 (NCI-H23 lung) was 2 µM and the TGI (NCI-H23 lung) was 8.82 µM. The GI50 (SNB-19 CNS) was 1.56 µM, the TGI (SNB-19 CNS) was 21.4 µM and the GI50 (MCF7 breast) was 1.97 µM. For the same compound, the TGI (MCF7 breast) was 9.84 µM, the GI50 (RXF 393 renal) was 1.75 µM and the TGI (RXF 393 renal) was 6.56 µM. It also gave a GI50 (BT-549 breast) of 2.08 µM, a TGI (BT-549 breast) of 6.85 µM and a GI50 (CAKI-1 renal) of 1.35 µM. For the same compound, the TGI (CAKI-1 renal) was 5.17 µM, the GI50 (MALME-3M melanoma) was 1.81 µM and the TGI (MALME-3M melanoma) was 5.72 µM. The GI50 (CCRF-CEM leukemia) was 1.5 µM, the TGI (CCRF-CEM leukemia) was 15.1 µM and the GI50 (SK-MEL-5 melanoma) was 0.592 µM. For the same compound, the TGI (SK-MEL-5 melanoma) was 2.1 µM, the GI50 (HCC-2998 colon) was 2.06 µM and the TGI (HCC-2998 colon) was 10 µM. It also gave a GI50 (ACHN renal) of 2.11 µM, a TGI (ACHN renal) of 7.93 µM and a GI50 (SW-620 colon) of 2.51 µM. The TGI (SW-620 colon) was 11.9 µM, the GI50 (SK-MEL-2 melanoma) was 1.47 µM and the TGI (SK-MEL-2 melanoma) was 6.75 µM.

From PubChem BioAssay (NCI)
